US20210023159A1, “METHOD FOR PROMOTING GROWTH OF AKKERMANSIA MUCINIPHILA USING MUSA FERMENTS” (TCI CO., LTD., priority 2019, published 2021)

Tested on: Akkermansia muciniphila BCRC 81048 strain
Test: Prebiotic test for A. muciniphila (single candidate prebiotics, plate count)
Format: cell-based
Conditions: 1% (w/w) candidate prebiotic in BHI medium, 48 h anaerobic incubation at 37° C.; control group = 100%
Source text: The Akkermansia muciniphila used in the Examples described herein is the Akkermansia muciniphila BCRC 81048 strain purchased from BCRC at the Food Industry Research and Development Institute (also deposited under ATCC BAA-835). For subsequent use in the prebiotic test, the A. muciniphila strain, after thawed and activation, was inoculated at 3% and pre-cultured in BHI medium (15 g BD Difco Brain Heart Infusion broth (Thermo Fischer Scientific) dissolved in 1 L deionized water at a pH value of about 7.0) at 37° C. under an anaerobic condition (10% carbon dioxide, 10% hydrogen, and 80% nitrogen) for 48 hours.
In order to identify the nutrients beneficial to the growth of A. muciniphila, pre-cultured A. muciniphila was inoculated at 3% in BHI medium containing 1% (w/w) of the candidate prebiotics and incubated at 37° C. under anaerobic conditions for 48 hours. The bacterial culture was then spread on BHI agar plates and incubated for 72 hours for bacterial counting. The candidate prebiotic was selected from xylooligosaccharides, isomaltooligosaccharides, lactitol, inulin, fructooligosaccharides, and a banana ferment. For comparison, A. muciniphila was alternatively incubated in BHI medium without candidate prebiotics (control group).

Compound | relative bacterial count of A. muciniphila
OC[C@@H](O)[C@@H](O[C@@H]1O[C@H](CO)[C@H](O)[C@H](O)[C@H]1O)[C@H](O)[C@@H](O)CO [lactitol] | ~258%
inulin | about 110%
